The nature of data set [1]: Moisture sorption/desorption by dynamic vapor sorption (DVS), with post-DVS PXRD. Type of data set: physicochemical. The text has this:
This example provides characterization data on PF-07265028 Form 1 from a sample obtained using a procedure disclosed in International Patent Publication No. WO2021/220185, using powder x-ray diffraction and dynamic vapor sorption to support the preparation of a disclosure. Form 1 is a crystalline hygroscopic tetrahydrate with multiple powder patterns depending on temperature and humidity. […] The dehydration risk can pose challenges to API isolation, storage and drug product manufacture. Maintaining the proper water content is considered to be difficult for Form 1.

A short description of data set [2]: Thermal analysis: dehydration by TGA. In kind it is physicochemical.

These results are taken from patent publication US20240409559A1, “CRYSTALLINE FORM OF AZALACTAM COMPOUND” (PFIZER INC., priority 2021, published 2024).

For the compound `CC[C@@H](N)c1nc(N2CCC[C@H]2C)cc2c1CN(c1cccc(-c3nnc4n3[C@@H](C)CC4)n1)C2=O` [Form 1, 4-[(1R)-1-aminopropyl]-2-{6-[(5S)-5-methyl-6,7-dihydro-5H-pyrrolo[2,1-c][1,2,4]triazol-3-yl]pyridin-2-yl}-6-[(2R)-2-methylpyrrolidin-1-yl]-2,3-dihydro-1H-pyrrolo[3,4-c]pyridin-1-one], in data set [1], the “Hygroscopicity (in words)” value is on record as “hygroscopic”. The “Moisture Sorption/Desorption-Hydrate (DVS): Change in mass-ref (%)” value in data set [1] (75% RH) is given as ~−2.4%; in data set [1] (90% RH), ~−0.1%; in data set [1] (at 60% RH) it was “Change in mass-ref (%) at 60% RH: ~−6.2%;”. The Crystallinity after dehydration result in data set [1] (after dehydration, PXRD after the water sorption experiment) was “can lose crystallinity”. For the same compound, the “Post-DVS PXRD result” value in data set [1] (after water sorption experiment) was “peak shifting and disorder observed”. For the same compound, in data set [1] (at 3% RH), the “Moisture Sorption/Desorption-Hydrate (DVS): dehydration state” value was “Completely dehydrated”. Also, in data set [1] (at or below 10% RH), the “Moisture Sorption/Desorption-Hydrate (DVS): rehydrate at or below 10% RH” value is given as “did not”. The “Rehydration at high humidity conditions” value in data set [1] (high humidity conditions, after dehydration) is recorded as “does not rehydrate”. In data set [2], the “Dehydration (TGA)-Hydrated/Solvated, weight loss” value was ~14% weight loss.
On to `CC[C@@H](N)c1nc(N2CCC[C@H]2C)cc2c1CN(c1cccc(-c3nnc4n3[C@@H](C)CC4)n1)C2=O` [Form 2, 4-[(1R)-1-aminopropyl]-2-{6-[(5S)-5-methyl-6,7-dihydro-5H-pyrrolo[2,1-c][1,2,4]triazol-3-yl]pyridin-2-yl}-6-[(2R)-2-methylpyrrolidin-1-yl]-2,3-dihydro-1H-pyrrolo[3,4-c]pyridin-1-one], for which the “Hygroscopicity (in words)” value in data set [1] is “non-hygroscopic”. In addition, the “Post-DVS PXRD compared with in-going material” value in data set [1] (after DVS experiment) is “Post-DVS PXRD is consistent with in-”. Moreover, the results for the “Hygroscopicity: Moisture Sorption (DVS)-Anhydrous” value in data set [1] (at 60% RH), in data set [1] (at 75% RH) and in data set [1] (at 90% RH) were ~0.2% at 60% RH, ~0.2% at 75% RH and ~0.2% at 90% RH, respectively.
